# Data reported in article PMC11374673, “Discovery of isoquinoline sulfonamides as allosteric gyrase inhibitors with activity against fluoroquinolone-resistant bacteria” (Nature Chemistry, 2024).
# Several values for one entry are separate records, joined by “and”; a condition that tells them apart may be missing. Equal entries are not always repeated. Entries after “also recorded” stand apart in the source; their conditions may differ. Where two headings read alike, the source gives them in different places.
# How the values were obtained:
# [1] = test system: E. coli W3110; test: Checkerboard assay with PMBN; conditions: for Checkerboard well reading (growth), Average values: average of 3 wells; for Checkerboard well reading (growth): single wells (triplicate)
# [2] = test system: E. coli W3110; test: MIC by broth microdilution; format: cell-based, Escherichia coli; conditions: for MIC: broth microdilution, read-out: MIC E. coli W3110; for antimicrobial activity: relative to parent compound
# Method in brief: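 Exponential-phase cultures (OD600 0.5, 37 °C aerobic), diluted 100-fold in CAMHB, were added to twofold compound dilution series. Keio strains grown with 50 µg ml^−1 kanamycin. Plates incubated overnight at 37 °C, shaking at 600 r.p.m.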
structure (smiles),measurement,setting,value
O=S(=O)(NC[C@H]1CC[C@@H](c2ccc(-c3ccc(F)nc3)cc2)N1)c1cccc2cnccc12 [LEI-801],"Checkerboard well reading (growth), Average values",[1]; LEI-801 12.5 µM + PMBN 0 µM,0.6968
same,"Checkerboard well reading (growth), Average values",[1]; LEI-801 12.5 µM + PMBN 0.5 µM,0.5454
same,"Checkerboard well reading (growth), Average values",[1]; LEI-801 12.5 µM + PMBN 1 µM,0.4004
same,"Checkerboard well reading (growth), Average values",[1]; LEI-801 12.5 µM + PMBN 2 µM,0.1564
same,Checkerboard well reading (growth),[1]; LEI-801 12.5 µM + PMBN 2 µM,0.1441 and 0.1568 and 0.1684
same,"Checkerboard well reading (growth), Average values",[1]; LEI-801 12.5 µM + PMBN 4 µM,0.1485
same,Checkerboard well reading (growth),[1]; LEI-801 12.5 µM + PMBN 4 µM,0.1572
same,"Checkerboard well reading (growth), Average values",[1]; LEI-801 12.5 µM + PMBN 8 µM,0.1397
same,"Checkerboard well reading (growth), Average values",[1]; LEI-801 12.5 µM + PMBN 16 µM,0.1401
same,"Checkerboard well reading (growth), Average values",[1]; LEI-801 12.5 µM + PMBN 32 µM,0.1472
same,"Checkerboard well reading (growth), Average values",[1]; LEI-801 25 µM + PMBN 0 µM,0.6592
same,Checkerboard well reading (growth),[1]; LEI-801 25 µM + PMBN 0 µM,0.7013 and 0.6648 and 0.6113
same,"Checkerboard well reading (growth), Average values",[1]; LEI-801 25 µM + PMBN 0.5 µM,0.5495
same,Checkerboard well reading (growth),[1]; LEI-801 25 µM + PMBN 0.5 µM,0.5605 and 0.5428 and 0.5453
same,"Checkerboard well reading (growth), Average values",[1]; LEI-801 25 µM + PMBN 1 µM,0.1537
same,Checkerboard well reading (growth),[1]; LEI-801 25 µM + PMBN 1 µM,0.153 and 0.1529 and 0.1554
same,"Checkerboard well reading (growth), Average values",[1]; LEI-801 25 µM + PMBN 2 µM,0.155
same,Checkerboard well reading (growth),[1]; LEI-801 25 µM + PMBN 2 µM,0.1518 and 0.1536 and 0.1596
same,"Checkerboard well reading (growth), Average values",[1]; LEI-801 25 µM + PMBN 4 µM,0.1451
same,Checkerboard well reading (growth),[1]; LEI-801 25 µM + PMBN 4 µM,0.1525 and 0.1428 and 0.1399
same,"Checkerboard well reading (growth), Average values",[1]; LEI-801 25 µM + PMBN 8 µM,0.1413
same,Checkerboard well reading (growth),[1]; LEI-801 25 µM + PMBN 8 µM,0.1394 and 0.1427 and 0.1418
same,"Checkerboard well reading (growth), Average values",[1]; LEI-801 25 µM + PMBN 16 µM,0.1492
same,Checkerboard well reading (growth),[1]; LEI-801 25 µM + PMBN 16 µM,0.1486 and 0.1511 and 0.148
same,"Checkerboard well reading (growth), Average values",[1]; LEI-801 25 µM + PMBN 32 µM,0.1528
same,Checkerboard well reading (growth),[1]; LEI-801 25 µM + PMBN 32 µM,0.1518 and 0.1502 and 0.1563
same,"Checkerboard well reading (growth), Average values",[1]; LEI-801 50 µM + PMBN 0 µM,0.5341
same,Checkerboard well reading (growth),[1]; LEI-801 50 µM + PMBN 0 µM,0.4876 and 0.5464 and 0.5682
same,"Checkerboard well reading (growth), Average values",[1]; LEI-801 50 µM + PMBN 0.5 µM,0.1519
same,Checkerboard well reading (growth),[1]; LEI-801 50 µM + PMBN 0.5 µM,0.1573 and 0.1437 and 0.1549
same,"Checkerboard well reading (growth), Average values",[1]; LEI-801 50 µM + PMBN 1 µM,0.152
same,Checkerboard well reading (growth),[1]; LEI-801 50 µM + PMBN 1 µM,0.1515 and 0.1507 and 0.1538
same,"Checkerboard well reading (growth), Average values",[1]; LEI-801 50 µM + PMBN 2 µM,0.1516
same,Checkerboard well reading (growth),[1]; LEI-801 50 µM + PMBN 2 µM,0.15 and 0.1487 and 0.1561
same,"Checkerboard well reading (growth), Average values",[1]; LEI-801 50 µM + PMBN 4 µM,0.1474
same,Checkerboard well reading (growth),[1]; LEI-801 50 µM + PMBN 4 µM,0.1453 and 0.1491 and 0.1477
same,"Checkerboard well reading (growth), Average values",[1]; LEI-801 50 µM + PMBN 8 µM,0.1653
same,Checkerboard well reading (growth),[1]; LEI-801 50 µM + PMBN 8 µM,0.1998 and 0.1452 and 0.1509
same,"Checkerboard well reading (growth), Average values",[1]; LEI-801 50 µM + PMBN 16 µM,0.1513
same,Checkerboard well reading (growth),[1]; LEI-801 50 µM + PMBN 16 µM,0.1499 and 0.152 and 0.1519
same,"Checkerboard well reading (growth), Average values",[1]; LEI-801 50 µM + PMBN 32 µM,0.1507
same,Checkerboard well reading (growth),[1]; LEI-801 50 µM + PMBN 32 µM,0.1485 and 0.1492 and 0.1546
same,MIC E. coli + 8 μM PMBN,[1]; LPS disruption (pharmacological),6.25 µM
same,synergy with PMBN,[1]; checkerboard,potentiates; also recorded: Clear synergy
same,MSC,"[1]; checkerboard with PMBN, E. coli W3110",6.25 µM
same,MIC,"[2]; Escherichia coli, W3110, WT",> 50 µM
same,MIC,"[2]; WT, listed as LEI-801 (99)",> 50 µM
same,antimicrobial activity,[2]; listed as 99,completely inactive
same,antimicrobial activity,[2]; listed as 99 (LEI-801),inactive
